Measured values from US5118686A, “Phenylpyrimidones” (Smith Kline & French Laboratories Limited, priority 1989, dated 1992).

What was measured:
[1] = tested on: U46619-induced bronchoconstriction; assay: Bronchodilatation - In vivo (inhibition of U46619-induced bronchoconstriction in anaesthetised guinea-pigs); set-up: species or system guinea-pig (Dunkin Hartley strain, male); conditions: Cavia porcellus, iv; i.v. bolus; U46619 infused i.v. 2.5 nmol/min; peak inhibition; read-out: BD50 (dose of compound required to reduce the U46619-induced bronchoconstriction by 50%)
Method: Male guinea-pigs of the Dunkin Hartley strain (500-600g) were anaesthetised with Sagatal (pentobarbital sodium) (60 mg/kg). Airway resistance was measured using a modification of the classical Konzett-Rossler technique (J. pharm. Methods, 13, 309-315, 1985). U46619 (9,11-methanoepoxy-PGH2) was infused i.v. at a rate of 2.5 nmol/min, this produced a steady state of bronchoconstriction (approximately 120% increase from basal airway resistance). The compound under test was administered by i.v. bolus injection, and the subsequent peak inhibition of bronchoconstriction recorded.

[2] = tested on: spontaneous colonic activity (distal colon segment); assay: Inhibition of spontaneous colonic activity - in vitro; set-up: species or system guinea-pig (male albino); conditions: Cavia porcellus; isolated distal colon, Krebs solution, 37° C.; read-out: IC50 (concentration of compound required to reduce spontaneous colonic activity by 50%)
Description: Male albino guinea-pigs (300-400g) were killed by a blow to the back of the head and exsanguinated. A 2cm long segment of the proximal part of the hypogastric loop of the distal colon was rapidly dissected out and placed in oxygenated (95% O2, 5% CO2) modified warm Krebs solution. The tissue was cleaned out with Krebs and the adjoining mesentery discarded. Cotton was then tied to each end and the colon was attached to a tissue holder in an organ bath containing modified oxygenated Krebs solution at 37° C. The other end of the tissue was tied to an isometric transducer and placed under 1 g tension. Force developed by the muscle was detected by the transducer, and recorded on a multitrace pen recorder. Spontaneous colonic activity, as assessed by the contraction distance over a five minute period, was subjected to computer analysis.
The tissues were allowed to settle at a resting tension of 1 g for 1 hour, during which time they were washed at 15 minute intervals. Three samples of pre-dose activity were taken and averaged. The tissues were then dosed and two samples of post-dose activity were taken. The lowest value was used to calculate the percentage relaxation, and log dose response curves were constructed. The tissues were washed 10 minutes after dosing and left for 15 minutes to settle prior to the next control period.
The concentration of compound required to reduce spontaneous colonic activity by 50% is given as the IC50.

| SMILES | ED50 [1] [µmol/kg] | IC50 [2] [nM] |
| --- | --- | --- |
| CCCOc1ccccc1-c1nc(NC(=O)NC)cc(=O)[nH]1 [Example 5, 6-N'-methylureido-2-(2-propoxyphenyl)pyrimidin-4[3H]-one] | 8.34 | 2400 |
| CCCOc1ccccc1-c1nc(O)cc(C(N)=O)n1 [Example 15, 6-Hydroxy-2-(2-propoxyphenyl)pyrimidine-4-carboxamide] |  | 750 |
| CCCOc1ccccc1-c1nc(O)cc(C#N)n1 [Example 16, 4-cyano-6-hydroxy-2-(2-propoxyphenyl)pyrimidine] | 6.03 |  |
| CCCOc1ccccc1-c1nc(O)cc(CC)n1 [Example 18, 4-Ethyl-6-hydroxy-2-(2-propoxyphenyl)pyrimidine] | 9.7 | 3300 |
| CCCOc1ccccc1-c1nc(O)cc(C(=O)NCC)n1 [Example 21, N-Ethyl 6-hydroxy-2-(2-propoxyphenyl)pyrimidine-4-carboxamide] |  | 3700 |
